Reference: patent publication US8833306B2, “PACAP for aquatic organism culture” (priority 2005, dated 2014)
No end group written: not given here.

Legend:
[1] = test system: tilapia Oreochromis niloticus; test: Effect of recombinant PACAP on juvenile tilapia appetite (ingested food); type: in vivo; settings: i.p. 0.1 μg/g; 6 hours and 22 hours; p<0.05
Protocol: To analyze the effect of the PACAP in the fish appetite, we used tilapia of the Oreochromis niloticus species, without sex distinction and approximately the same average body weight. Three experimental groups were formed having 3 individuals in each and 3 replicates per group. The groups were acclimated in separated tanks with stable water recirculation, to a temperature of 28° C. and with the photoperiod of 14 hours light and 10 hours dark. […] The second group was treated with the GHRP-6 (Lipotec, S.A, Spain) by the same administration via at the dose of 0.1 μg of the peptide by gram of the animal corporal weight. The control group was treated with E. coli proteins contained in PBS 1× (E. coli proteins were obtained by the same purification procedure of the interest peptide, with the amount equivalent of the contaminants presents in the purified PACAP sample). After the treatments, the same amount of food was added to the three experimental groups, collecting the non ingested food in 6 hour and adding food again. The appetite was measured again, 22 hours from the beginning of the experiment. The food not ingested in each tank was dried in the stove (100° C., during 24 h) and was weighed in an analytical balance. The ingested food was calculated determining the difference between the food added to the tanks (10 grams, with a 20% of humidity) and the food not ingested by the fish.

[2] = test system: juvenile Clarias gariepinus; test: Growth stimulation in Clarias gariepinus by recombinant PACAP in the fish diet; type: in vivo; settings: in the diet at 5 mg/Kg of feed; 30 days; p<0.01
Protocol: The Pichia pastoris culture supernatant containing the recombinant PACAP (SEQ ID No. 14) was concentrated and formulated in the nutritional fish diet to a concentration of approximately 5 mg/Kg of feed. Two experimental groups were formed having 100 larvae in each with an average body weight of 0.1 g. One group was treated with recombinant PACAP (SEQ ID No. 14) containing in P. pastoris culture supernatants and the other used as a control group was treated with non-transformed P. pastoris culture supernatant. The experiment was carried out during 30 days.

In the case of GHRP-6, the “appetite (ingested food) compared with control group” value [1] is reported as “significant appetite increase”.
“PACAP (SEQ ID No. 14): Clarias gariepinus recombinant PACAP variant contained in P. pastoris culture supernatants; used in Examples 6-8 (HSDGIFTDSYSRYRKQMAVKKYLAAVLGRRYRQRFRNK; ends and bridges not checked; listed as Clarias gariepinus)” was tested, and the “growth increase compared with control group” value [2] was 30%.
